Laboratory results: patent US20230172132A1, “A METHOD FOR […] CONTENT IN A CROP PLANT” (SENSIENT COLORS, LLC, priority 2020, published 2023)

Assays:
[1] = tested on: beet plant; assay: Pre-harvest foliar spraying of ethylene-releasing compound on beet leaves, betalain concentration of roots versus unsprayed controls; format: in vivo, Beta vulgaris
Text: In one embodiment, the method comprises the pre-harvest foliar spraying of an ethylene-releasing compound on a beet plant, wherein the pre-harvest foliar spraying of an ethylene-releasing compound leaves the mean betalain concentration in the roots of the treated plants increased by more than 200% when compared to controls without any spraying.
The method described herein may be used for commercially-relevant, large scale production of a betalain pigment, e.g., the large scale isolation from a beet crop plant. Accordingly, it may be that the isolation of betalains of step (iii) is done from at least 15 different harvested beet plants, more preferably from at least 100 different harvested beet plants, even more preferably from at least 500 different harvested beet plants, or such as from at least 1000 different harvested beet plants. It is evident that when at least 15 different harvested beet plants are used in isolation step (iii), then foliar spraying of ethylene-releasing compound (e.g., 2-Chloroethylphosphonic acid) of step (i) has been done on at least 15 different beet plants and in step (ii), at least 15 different crop plants have been harvested. As discussed above, the present inventors identified that by pre-harvest foliar spraying of 2-Chloroethylphosphonic acid (e.g., 2-Chloroethylphosphonic acid) on beet leaves the mean betalain concentration of treated plants increased by an increased amount when compared to controls without any spraying.
Preferably, the amount of isolated betalain pigment in step (iii) of the method is an amount of betalain pigment which is at least 15% higher (w/w), more preferably at least 20/a higher (w/w), even more preferably at least 25% higher (w/w), and most preferably at least 35% higher (w/w), as compared to the amount of betalain pigment that is isolated in a control experiment without use of the ethylene-releasing compound in step (i). The purpose of a control experiment is to analyze the effect of using ethylene-releasing compound (e.g. 2-Chloroethylphosphonic acid). […]

[2] = tested on: red beet (Beta vulgaris); assay: Greenhouse testing: foliar spray of Ethephon on crop plants, pigment content of roots at harvest; format: in vivo; details: for Betanin / Vulgaxanthin: greenhouse, spray rate not given
Experimental: Planting of varieties were staggered across several weeks to vary maturity for one spray. Two spray rates were administered across all plants on one spray date ([…]). Harvesting was done 3-4 weeks after spray. Initial visualization was performed prior to crop samples sent to laboratory for evaluation.

[3] = harvest 7, 10, 13, 16, 19, 22, 25, 26, 29 and 35 weeks after planting, every harvest point

`O=P(O)(O)CCCl` [Ethephon, 2-Chloroethylphosphonic acid] was tested, and the “mean betanin concentration of treated roots” value [1, 3] was “higher”, the “mean vulgaxanthin concentration of treated roots” value [1, 3] was “higher” and the “mean betalain concentration of treated plants compared to controls without any spraying” value ([1]; pre-harvest foliar spraying on beet leaves) was “increased”. For the same compound, the Betanin ([2]; beet variety Chioggia) was 320 mg/kg, dry basis, the Vulgaxanthin ([2]; beet variety Chioggia) was 380 mg/kg, dry basis and the Anthocyanin levels ([2]; carrots, beets and radishes, spray 120 g/h and 360 g/h, harvest 3-4 weeks after spray) was “Enhanced”. For the same compound, the Betanin ([2]; red beet variety Nochowski) was 9,400 mg/kg, dry basis, the Vulgaxanthin ([2]; red beet variety Nochowski) was 6,700 mg/kg, dry basis and the Betanin ([2]; red beet variety Red Cloud) was 6,000 mg/kg, dry basis. The Vulgaxanthin ([2]; red beet variety Red Cloud) was 3,300 mg/kg, dry basis, the Betanin ([2]; red beet variety Ruby Queen) was 3,500 mg/kg, dry basis and the Vulgaxanthin ([2]; red beet variety Ruby Queen) was 800 mg/kg, dry basis.
